Biological target: T1, B5 and B5R (Homo sapiens, UniProt O43169+P00387)
T1 sequence (O43169 16-150): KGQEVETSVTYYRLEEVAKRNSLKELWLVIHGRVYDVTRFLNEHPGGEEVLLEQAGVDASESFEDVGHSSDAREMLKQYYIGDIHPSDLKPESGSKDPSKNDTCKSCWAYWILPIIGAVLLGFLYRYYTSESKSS
T1 sequence (P00387 24-301 limits assumed): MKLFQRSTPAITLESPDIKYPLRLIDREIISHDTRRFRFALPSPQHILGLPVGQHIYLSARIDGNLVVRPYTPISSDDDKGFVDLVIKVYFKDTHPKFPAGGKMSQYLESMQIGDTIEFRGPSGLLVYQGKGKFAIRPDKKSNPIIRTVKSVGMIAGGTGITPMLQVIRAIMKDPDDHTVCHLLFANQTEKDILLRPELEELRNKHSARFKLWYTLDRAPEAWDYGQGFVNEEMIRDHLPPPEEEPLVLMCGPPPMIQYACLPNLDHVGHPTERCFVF
Experiment: Bioconversion control experiment without mARC
Assay type: in vitro ADME
Details: B5 and B5R only, no mARC; NADH assay

C/C(=N\O)NC(c1ccccc1)c1ccccc1 [Compound 2, (1E)‐N‐(diphenylmethyl)‐N′‐hydroxyethanimidamide]
conversion to the amidine 1 in control experiment: no conversion

Reference: article PMC7756445, “A Novel Prodrug of a nNOS Inhibitor with Improved Pharmacokinetic Potential” (Chemmedchem, 2020)
